Experimental data: ChEMBL document CHEMBL5550185, “Targeting hTERT Promoter G-Quadruplex DNA Structures with Small-Molecule Ligand to Downregulate hTERT Expression for Triple-Negative Breast Cancer Therapy” (J Med Chem, 2024)
The source made the active and inactive calls. The rule behind the calls is not given here.

Assays:
[1] = Upregulation of KLF2 gene expression in human MDA-MB-231 cells assessed as fold change at 1 uM measured after 48 hrs by RNA-seq analysis relative to control; format: functional
MDA-MB-231 [2] = experiment: Induction of ferroptosis in human MDA-MB-231 cells assessed as increase in ROS production measured after 48 hrs by Hoechst 33342 staining based confocal microscopic analysis; format: functional, cell-based; conditions: dose 0-1.5 µM
[3] = Selectivity ratio of binding affinity to human TERT G4 DNA to binding affinity to 4a4t duplex DNA (unknown origin)
MDA-MB-231 [4] = experiment: Downregulation of ND4 gene expression in human MDA-MB-231 cells at 1 uM measured after 48 hrs by RNA-seq analysis; format: functional, cell-based
Quadruplex DNA [5] = experiment: Binding affinity to c-MYC Pu27 G4 DNA (unknown origin) assessed as thermal stability by measuring change in melting temperature at 400 uM […]; format: nucleic-acid assay
MDA-MB-231 [6] = experiment: Antitumor activity against human MDA-MB-231 cells xenografted in female Balb/c mouse assessed as reduction in tumor volume at 2 mg/kg, iv administered via tail vein every 2 days for 16 days relative to control; format: functional; design: scale not given: the % may be the effect or the level left; conditions: time 16 day
MDA-MB-231 [7] = experiment: Induction of cell cycle arrest in human MDA-MB-231 cells assessed as accumulation of cells at G2/M phase at 0.5 to 1.5 uM measured after 48 hrs by 7-aminoactinomycin D/RNase staining based flow cytometry analysis (reference value: 14.3%); format: functional; conditions: dose 0.5-1.5 µM
MDA-MB-231 [8] = experiment: Induction of mitochondrial dysfunction in human MDA-MB-231 cells assessed as downregulation of mitochondrial respiratory complex III-UQCRC2 expression incubated for 48 hrs by Western blot analysis; format: functional, cell-based; conditions: dose 0-1.5 µM
[9] = Toxicity in female Balb/c nude mouse xenografted with human MDA-MB-231 cells assessed as change in ALT level at 2 to 5 mg/kg, iv administered via tail vein every 2 days for 16 days; format: organism-based; conditions: in vivo, 384 h, dose 2-5 mg/kg, time 16 day
Quadruplex DNA [10] = experiment: Binding affinity to hTERT G4 DNA assessed as dissociation constant by ITC analysis; format: nucleic-acid assay, Homo sapiens
DNA [11] = experiment: Binding affinity to Dt21 ssDNA (unknown origin) assessed as thermal stability by measuring change in melting temperature at 400 uM […]; format: nucleic-acid assay
MDA-MB-231 [12] = experiment: Cytotoxicity against telomerase-positive human MDA-MB-231 cells assessed as inhibition of cell growth incubated for 48 hrs by MTT assay; format: functional, cell-based; conditions: MDA-MB-231, 48 h
[13] = Upregulation of TGFB3 gene expression in human MDA-MB-231 cells assessed as fold change at 1 uM measured after 48 hrs by RNA-seq analysis relative to control; format: functional
MDA-MB-231 [14] = experiment: Induction of telomere dysfunction in human MDA-MB-231 cells assessed as cellular senescence at 0.2 uM measured after 10 days by SA-beta-gal staining based analysis; format: functional, cell-based; conditions: time 10.0 day
MDA-MB-231 [15] = experiment: Induction of DNA damage in human MDA-MB-231 cells assessed as upregulation of gamma-H2AX protein expression measured after 48 hrs by Western blot analysis; format: functional, cell-based; conditions: dose 0-1.5 µM
MDA-MB-231 [16] = experiment: Inhibition of TRF2 protein expression in human MDA-MB-231 cells measured after 48 hrs by Western blot analysis; format: functional, cell-based; conditions: dose 0-1.5 µM
Quadruplex DNA [17] = experiment: Binding affinity to Bcl-2 G4 DNA (unknown origin) assessed as change in enthalpy at 400 uM by ITC analysis; format: nucleic-acid assay
[18] = Toxicity in female Balb/c nude mouse xenografted with human MDA-MB-231 cells assessed as change in mean corpuscular hemoglobin concentration at 2 to 5 mg/kg, iv administered via tail vein every 2 days for 16 days; format: organism-based; conditions: in vivo, 384 h, dose 2-5 mg/kg, time 16 day
MDA-MB-231 [19] = experiment: Disruption of energy metabolism in human MDA-MB-231 cells assessed as reduction in cellular energy production by measuring reduction in oxygen consumption rate at 1.5 uM measured after 2 hrs by Seahorse XF24 analyzer; format: functional, cell-based
[20] = Upregulation of MAPK13 gene expression in human MDA-MB-231 cells assessed as fold change at 1 uM measured after 48 hrs by RNA-seq analysis relative to control; format: functional
[21] = Upregulation of TGFB2 gene expression in human MDA-MB-231 cells assessed as fold change at 1 uM measured after 48 hrs by RNA-seq analysis relative to control; format: functional
[22] = Upregulation of HLA-C gene expression in human MDA-MB-231 cells assessed as fold change at 1 uM measured after 48 hrs by RNA-seq analysis relative to control; format: functional
DNA [23] = experiment: Binding affinity to DNA in telomerase-positive live human MDA-MB-231 cells at 5 uM preincubated for 10 mins followed by washout and RNase A addition measured after 2 hrs by Hoechst 33342 staining based confocal microscopic analysis; format: cell-based
[24] = Upregulation of SAT1 gene expression in human MDA-MB-231 cells assessed as fold change at 1 uM measured after 48 hrs by RNA-seq analysis relative to control; format: functional
[25] = Toxicity in female Balb/c nude mouse xenografted with human MDA-MB-231 cells assessed as reduction in body weight at 2 to 5 mg/kg, iv administered via tail vein every 2 days for 16 days; format: organism-based; conditions: in vivo, 384 h, dose 2-5 mg/kg, time 16 day
[26] = Upregulation of FTH1 gene expression in human MDA-MB-231 cells assessed as fold change at 1 uM measured after 48 hrs by RNA-seq analysis relative to control; format: functional
MDA-MB-231 [27] = experiment: Induction of mitochondrial dysfunction in human MDA-MB-231 cells assessed as increase in mitochondrial ROS production at 0 to 1.5 uM incubated for 48 hrs by Hoechst33342 staining based microscopic analysis; format: functional, cell-based; conditions: dose 0-1.5 µM
[28] = Toxicity in female Balb/c nude mouse xenografted with human MDA-MB-231 cells assessed as change in RBC count at 2 to 5 mg/kg, iv administered via tail vein every 2 days for 16 days; format: organism-based, Erythrocyte; conditions: in vivo, 384 h, dose 2-5 mg/kg, time 16 day
[29] = Toxicity in female Balb/c nude mouse xenografted with human MDA-MB-231 cells assessed as pathological changes in liver at 2 to 5 mg/kg, iv administered via tail vein every 2 days for 16 days by H and E staining based analysis; format: organism-based; conditions: in vivo, 384 h, dose 2-5 mg/kg, time 16 day
[30] = Upregulation of PCBP3 gene expression in human MDA-MB-231 cells assessed as fold change at 1 uM measured after 48 hrs by RNA-seq analysis relative to control; format: functional
MDA-MB-231 [31] = experiment: Downregulation of c-MYC mRNA expression in human MDA-MB-231 cells at 0 to 1.5 uM measured after 48 hrs by qRT-PCR analysis; format: functional, cell-based; conditions: dose 0-1.5 µM
MDA-MB-231 [32] = experiment: Activation of apoptosis in human MDA-MB-231 cells assessed as downregulation of Bcl-2 protein expression measured after 48 hrs by Western blot analysis; format: functional, cell-based; conditions: dose 0-1.5 µM
Homo sapiens = organism: Homo sapiens; experiment: Selectivity ratio of binding affinity to human TERT G4 DNA to binding affinity to antisense i-hTERT DNA
[33] = Upregulation of SGK1 gene expression in human MDA-MB-231 cells assessed as fold change at 1 uM measured after 48 hrs by RNA-seq analysis relative to control; format: functional
[34] = Toxicity in female Balb/c nude mouse xenografted with human MDA-MB-231 cells assessed as change in hemoglobin concentration at 2 to 5 mg/kg, iv administered via tail vein every 2 days for 16 days; format: organism-based; conditions: in vivo, 384 h, dose 2-5 mg/kg, time 16 day

C[n+]1c(/C=C/c2c[nH]c3ccccc23)cc(/C=C2\Sc3ccccc3N2CCCN2CCC(C(F)(F)F)CC2)c2ccccc21.[I-]
fold change (FC) [1]: >2 | Activity (MDA-MB-231 [2]): Dose-Dependent Effect | Selectivity ratio [3]: 3 | Activity (MDA-MB-231 [4]): Active | ΔTm (Quadruplex DNA [5]): 2.59 °C | Activity (MDA-MB-231 [6]): 52.6% | Activity (MDA-MB-231 [7]): 32% | Activity (MDA-MB-231 [8]): Dose-Dependent Effect | Activity [9]: Non-Toxic | Kd (Quadruplex DNA [10]): 1140 nM | ΔTm (DNA [11]): -2.51 °C | IC50 (MDA-MB-231 [12]): 1000 nM | fold change (FC) [13]: >2 | Activity (MDA-MB-231 [14]): Active | Activity (MDA-MB-231 [15]): Dose-Dependent Effect | inhibition (MDA-MB-231 [16]): Dose-Dependent Effect | deltaH (Quadruplex DNA [17]): -2.34 kcal/mol | Activity [18]: Non-Toxic | Activity (MDA-MB-231 [19]): Active | fold change (FC) [20]: >2 | fold change (FC) [21]: >2 | fold change (FC) [22]: >2 | Activity (DNA [23]): Active | fold change (FC) [24]: >2 | Activity [25]: Non-Toxic | fold change (FC) [26]: >2 | Activity (MDA-MB-231 [27]): Active | Activity [28]: Non-Toxic | Activity [29]: Non-Toxic | fold change (FC) [30]: >2 | Activity (MDA-MB-231 [31]): inactive | Activity (MDA-MB-231 [32]): Dose-Dependent Effect | Selectivity ratio (Homo sapiens): 3 | fold change (FC) [33]: >2 | Activity [34]: Non-Toxic
